This note sets out measurements from ChEMBL document CHEMBL1136191, “Cyclin-dependent kinase 4 inhibitors as a treatment for cancer. Part 1: identification and optimisation of substituted 4,6-bis anilino pyrimidines” (Bioorg Med Chem Lett, 2003).

The target of experiment [1] is Cyclin-dependent kinase 4 (Homo sapiens, UniProt P11802). The experiment is described as follows: In vitro inhibition of Cyclin-dependent kinase 4 was determined.
Experiment [2] addresses Cyclin-dependent kinase 2 (Homo sapiens, UniProt P24941). Nature of the experiment: In vitro inhibition of Cyclin-dependent kinase 2 was determined.

Sequence of Cyclin-dependent kinase 4 (P11802 whole entry): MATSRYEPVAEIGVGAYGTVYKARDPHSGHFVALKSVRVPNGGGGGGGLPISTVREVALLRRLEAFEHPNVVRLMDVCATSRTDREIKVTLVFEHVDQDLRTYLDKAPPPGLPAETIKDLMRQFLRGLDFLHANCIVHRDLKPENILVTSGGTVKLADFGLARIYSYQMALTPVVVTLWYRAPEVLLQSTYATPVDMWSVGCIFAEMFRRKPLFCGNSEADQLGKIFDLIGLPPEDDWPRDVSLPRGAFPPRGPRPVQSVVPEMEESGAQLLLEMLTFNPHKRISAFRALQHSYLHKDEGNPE

Usually IC50 stands for the point on the concentration scale where inhibition reaches its midpoint. Lower therefore signals inhibition by little substance. On to `CN(C)CC(O)COc1ccc(Nc2cc(Nc3cc(Cl)ccc3Cl)ncn2)cc1` (configuration not stated), for which the IC50 amounted to 1 µM in experiment [1] and 22 µM in experiment [2].

As for `CN(C)CC(O)COc1ccc(Nc2cc(N(CC#N)c3cc(Cl)ccc3Cl)ncn2)cc1` (configuration not stated), the IC50 was found to be 0.05 µM in experiment [1] and 1 µM in experiment [2].

Regarding `CN(C)CC(O)COc1ccc(Nc2cc(Nc3ccccc3F)ncn2)cc1` (configuration not stated), the IC50 in experiment [1] is 27 µM; in experiment [2] it was over 100 µM.

As for `Cc1ccccc1Nc1cc(Nc2ccc(OCC(O)CN(C)C)cc2)ncn1` (configuration not stated), the IC50 came to 8 µM in experiment [1] and 39 µM in experiment [2].

`CN(C)CC(O)COc1ccc(Nc2cc(N(Cc3ccccc3)c3cc(Cl)ccc3Cl)ncn2)cc1` (configuration not stated): the IC50 in experiment [1] was 5 µM; in experiment [2], over 100 µM.

On to `C#CCN(c1cc(Nc2ccc(OCC(O)CN(C)C)cc2)ncn1)c1cc(Cl)ccc1Cl` (configuration not stated), for which the IC50 is 0.8 µM in experiment [1] and 19 µM in experiment [2].

For the molecule `CN(C)CC(O)COc1ccc(Nc2cc(Nc3ccccc3Br)ncn2)cc1` (configuration not stated), the concentration for half-maximal inhibition (IC50) in experiment [1] amounted to 4 µM; in experiment [2], 28 µM.

For the molecule `CN(C)CC(O)COc1ccc(Nc2cc(Nc3ccccc3)ncn2)cc1` (configuration not stated), the 50% inhibitory concentration (IC50) in experiment [1] is 33 µM; in experiment [2], over 100 µM.

Turning to `CN(C)CC(O)COc1ccc(Nc2cc(Nc3ccccc3[N+](=O)[O-])ncn2)cc1` (configuration not stated), the IC50 in experiment [1] stood at 2 µM; in experiment [2] it was 25 µM.

Turning to `CN(C)CC(O)COc1ccc(Nc2cc(Nc3ccccc3Cl)ncn2)cc1` (configuration not stated), the results for the IC50 in experiment [1] and in experiment [2] were 8 µM and 95 µM, respectively.

For `CC(C)c1ccccc1Nc1cc(Nc2ccc(OCC(O)CN(C)C)cc2)ncn1` (configuration not stated), the IC50 amounted to 18 µM in experiment [1] and 24 µM in experiment [2].

In experiment [1], `CN(C)CC(O)COc1ccc(Nc2cc(Nc3cc(C(F)(F)F)ccc3F)ncn2)cc1` (configuration not stated) had a concentration for half-maximal inhibition (IC50) of 6 µM.

As for `Cc1ccc(N(CC#N)c2cc(Nc3ccc(OCC(O)CN(C)C)cc3)ncn2)c(Br)c1` (configuration not stated), the results for the half-inhibitory concentration (IC50) in experiment [1] and in experiment [2] were 0.1 µM and 3 µM, respectively.

With `COc1ccccc1Nc1cc(Nc2ccc(OCC(O)CN(C)C)cc2)ncn1` (configuration not stated), the half-maximal inhibitory concentration (IC50) in experiment [1] is 23 µM; in experiment [2], 85 µM.

`CN(C)CC(O)COc1ccc(Nc2cc(Nc3c(F)cccc3F)ncn2)cc1` (configuration not stated): in experiment [1], half-maximal inhibition (IC50) required 9 µM.

For the molecule `CN(C)CC(O)COc1ccc(Nc2cc(N(CCC#N)c3cc(Cl)ccc3Cl)ncn2)cc1` (configuration not stated), the half-maximal inhibitory concentration (IC50) in experiment [1] worked out at 0.5 µM; in experiment [2], 5 µM.

In the case of `CN(C)CC(O)COc1ccc(Nc2cc(Nc3ccc(F)cc3F)ncn2)cc1` (configuration not stated), the IC50 is 15 µM in experiment [1] and 93 µM in experiment [2].
